As a reminder, the EC50 is the midpoint of the concentration-response curve.

Where only a bound is given, the exact number is not on record here.

The test system of the assay is Human RSV-A (“Long” strain). The assay is described as follows: RSV in vitro cytoprotection assay (CPE, ATPlite) in HEp-2 cells. Type of assay: cell-based. The following applies: human respiratory syncytial virus, 96 h; HEp-2 cells, 4-day incubation, ATPlite readout; read-out: Human RSV-A (“Long” strain) EC50. In outline: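 HEp-2 cells (8,000/well) given 2-fold serial compound dilutions in duplicate, then infected with sucrose-stabilised RSV-A Long stock. After 4 days, cell viability read by ATPlite luminescence, with a parallel uninfected plate for cytotoxicity. EC50 binned A<0.01 μM, B 0.01-0.05 μM, C>0.05 μM.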
On the technique in general: Cellular ATP, detected with luciferase, serves as a proxy for viable cell number.
For `O=C(Nc1c(F)cccc1F)c1cc2c(s1)CCN(C(=O)c1ccc(NC(=O)c3cc4c(nc3N3CC5(CCOCC5)C3)CCC4)cc1)c1ccccc1-2` [Example 263], the EC50 lay within 10 to 50 nM. Take `O=C(Nc1ccc(C(=O)N2CCc3sc(-c4nc5ccccc5[nH]4)cc3-c3ccccc32)cc1)c1cc2c(nc1N1CC3(CCOCC3)C1)CCC2` [Example 264]: the EC50 lay in the range of 10 to 50 nM. For `Cc1ccc(C(=O)Nc2ccc(C(=O)N3CCc4sc(C(=O)Nc5c(F)cccc5F)cc4-c4ccccc43)cc2)c(N2CC3(CCOCC3)C2)n1` [Example 265], the 50% effective concentration (EC50) was over 50 nM. With `Cc1ccc(C(=O)Nc2ccc(C(=O)N3CCc4sc(-c5nc6ccccc6[nH]5)cc4-c4ccccc43)cc2)c(N2CC3(CCOCC3)C2)n1` [Example 266], the EC50 was under 10 nM. As to `Cc1cnc(N2CC3(CCOCC3)C2)c(C(=O)Nc2ccc(C(=O)N3CCc4c(sc(C(=O)Nc5c(F)cccc5F)c4Cl)-c4ccccc43)cc2)c1` [Example 267], the 50% effective concentration (EC50) is under 10 nM.

On to `Cc1cnc(N2CC3(CCOCC3)C2)c(C(=O)Nc2ccc(C(=O)N3CCc4c(sc(C(=O)Nc5c(C)cccc5F)c4Cl)-c4ccccc43)cc2)c1` [Example 268], for which the concentration giving a half-maximal response (EC50) was under 10 nM. To `Cc1cnc(N2CC3(CCOCC3)C2)c(C(=O)Nc2ccc(C(=O)N3CCc4c(sc(C(=O)Nc5ccccc5Cl)c4Cl)-c4ccccc43)cc2)c1` [Example 269] belongs 10 to 50 nM. As for `Cc1cnc(N2CC3(CCOCC3)C2)c(C(=O)Nc2ccc(C(=O)N3CCc4c(sc(C(=O)Nc5ccccc5F)c4Cl)-c4ccccc43)cc2)c1` [Example 270], the EC50 was under 10 nM. Consider `Cc1cnc(N2CC3(CCOCC3)C2)c(C(=O)Nc2ccc(C(=O)N3CCc4c(sc(C(=O)Nc5c(C)cccc5C)c4Cl)-c4ccccc43)cc2)c1` [Example 271], for which the concentration for a half-maximal effect (EC50) lay within 10 to 50 nM. Take `Cc1cnc(N2CC3(CCOCC3)C2)c(C(=O)Nc2ccc(C(=O)N3CCc4c(sc(-c5nc6ccccc6[nH]5)c4Cl)-c4ccccc43)cc2)c1` [Example 272]: the EC50 is under 10 nM. Take `Cc1cnc(N2CC3(CCOCC3)C2)c(C(=O)Nc2ccc(C(=O)N3CCc4c(sc(-c5nc6ccccc6[nH]5)c4C)-c4ccccc43)cc2)c1` [Example 273]: the concentration giving a half-maximal response (EC50) lay in the range of 10 to 50 nM.

Consider `Cc1cnc(N2CC3(CCOCC3)C2)c(C(=O)Nc2ccc(C(=O)N3CCc4c(sc(C(=O)Nc5c(F)cccc5F)c4C)-c4ccccc43)cc2)c1` [Example 274], for which the EC50 was under 10 nM. For the molecule `Cc1cnc(N2CC3(CCOCC3)C2)c(C(=O)Nc2ccc(C(=O)N3CCc4cc(NC(=O)c5c(F)cccc5F)sc4-c4ccccc43)cc2)c1` [Example 275], the 50% effective concentration (EC50) was under 10 nM. With `Cc1ccc(C(=O)Nc2ccc(C(=O)N3CCc4cc(C(=O)Nc5c(C)cccc5F)sc4-c4ccccc43)cc2)c(N2CC3(CCOCC3)C2)n1` [Example 276] the figure was 10 to 50 nM; with `Cc1ccc(C(=O)Nc2ccc(C(=O)N3CCc4cc(NC(=O)c5c(F)cccc5Cl)sc4-c4ccccc43)cc2)c(N2CC3(CCOCC3)C2)n1` [Example 277], 10 to 50 nM; with `Cc1ccc(C(=O)Nc2ccc(C(=O)N3CCc4cc(NC(=O)c5ncccc5F)sc4-c4ccccc43)cc2)c(N2CC3(CCOCC3)C2)n1` [Example 278], under 10 nM. Take `Cc1cnc(N2CC3(CCOCC3)C2)c(C(=O)Nc2ccc(C(=O)N3CCc4cc(NC(=O)c5c(C)cccc5F)sc4-c4ccccc43)cc2)c1` [Example 281]: the EC50 was 10 to 50 nM.

Consider `Cc1cnc(N2CC3(CCOCC3)C2)c(C(=O)Nc2ccc(C(=O)N3CCc4cc(NC(=O)c5c(F)cccc5Cl)sc4-c4ccccc43)cc2)c1` [Example 282], for which the EC50 is under 10 nM.

As for `Cc1cnc(N2CC3(CCOCC3)C2)c(C(=O)Nc2ccc(C(=O)N3CCc4cc(NC(=O)c5ncccc5F)sc4-c4ccccc43)cc2)c1` [Example 283], the EC50 was under 10 nM. `Cc1cnc(N2CC3(CCOCC3)C2)c(C(=O)Nc2ccc(C(=O)N3CCc4cc(NC(=O)c5ccccc5)sc4-c4ccccc43)cc2)c1` [Example 284]: the EC50 is under 10 nM.

Regarding `Cc1cnc(N2CC3(CCOCC3)C2)c(C(=O)Nc2ccc(C(=O)N3CCc4cc(NC(=O)c5ccccc5F)sc4-c4ccccc43)cc2)c1` [Example 285], the concentration for a half-maximal effect (EC50) was under 10 nM.

The values above are taken from patent US11091501B2, “Heterocyclic compounds as RSV inhibitors” (Enanta Pharmaceuticals, Inc., priority 2017, dated 2021).
